From US12252524B2, “GIP/GLP1 co-agonist compounds” (Eli Lilly and Company, priority 2018, dated 2025) come the findings set out here.

Assay [1] deals with T1, human Gcg receptor (Homo sapiens, UniProt P47871).
T1 construct: expressed in transfected cells; crude membranes
Kind of assay: [125I]-Glucagon binding (SPA), human Gcg receptor. Particulars: read-out: hGLcgR Ki, nM (SEM, n). In outline:
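Cell pellets were lysed in hypotonic Tris buffer, pH 7.5, homogenized, and spun at low then high speed to give crude membranes. Ki was derived from the fitted IC50.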

For assay [2], the target named is T2, human GIP receptor (Homo sapiens, UniProt P48546).
T2 construct: expressed in transfected cells; crude membranes
T2 sequence (P48546 22-466): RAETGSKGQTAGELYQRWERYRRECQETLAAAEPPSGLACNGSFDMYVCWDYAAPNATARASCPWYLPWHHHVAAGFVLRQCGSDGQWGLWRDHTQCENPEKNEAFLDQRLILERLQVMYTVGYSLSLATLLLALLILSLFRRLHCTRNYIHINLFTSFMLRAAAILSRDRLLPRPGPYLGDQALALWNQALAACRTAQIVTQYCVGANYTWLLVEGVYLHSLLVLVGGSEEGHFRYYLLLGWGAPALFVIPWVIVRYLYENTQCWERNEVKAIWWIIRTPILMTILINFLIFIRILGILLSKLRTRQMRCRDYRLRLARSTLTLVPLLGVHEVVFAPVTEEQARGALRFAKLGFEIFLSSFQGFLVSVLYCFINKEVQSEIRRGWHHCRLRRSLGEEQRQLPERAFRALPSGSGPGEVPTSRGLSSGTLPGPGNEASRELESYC
Nature of the assay: [125I]-GIP binding (SPA), human GIP receptor. Particulars: read-out: hGIPR Ki, nM (SEM, n).

The target of assay [3] is human GLP-1 receptor (GLP-1R) (Homo sapiens, UniProt P43220). Kind of assay: cAMP pharmacological functional assay in presence of casein, hGLP-1R. Particulars: HEK293 cells expressing hGLP-1R, 0.1% Casein, geometric mean; read-out: hGLP1R cAMP Rel EC50 nM (SEM, n). The class given is cell-based.
The target in assay [4] is T3, gastric inhibitory peptide receptor (GIPR) (Homo sapiens, UniProt P48546).
T3 sequence (P48546 22-466): T2 sequence (P48546 22-466)
Kind of assay: cAMP pharmacological functional assay in presence of casein, hGIPR. The class given is cell-based. Particulars: HEK293 cells expressing hGIPR, 0.1% Casein, geometric mean; read-out: hGIPR cAMP Rel EC50 nM (SEM, n).

For assay [5], the target named is T4, human GLP-1R (Homo sapiens, UniProt P43220). Kind of assay: [125I]-GLP-1 binding (SPA), human GLP-1 receptor. Also noted: expressed in transfected cells; crude membranes. Particulars: read-out: hGLP1R Ki, (nM) (SEM, n). Summed up: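 Membranes: hypotonic lysis (50 mM Tris HCl, pH 7.5, protease inhibitors), Potter-Elvehjem homogenization, high-speed pellet (35000×g 1 h or 25000×g 30 min, 4° C.). Buffer: 25 mM HEPES pH 7.4, 2.5 mM CaCl2, 1 mM MgCl2. Four-parameter IC50 fit; Ki as geometric mean ± SEM.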

The target of assay [6] is T4, human GLP-1R. Nature of the assay: GLP-1R HEK293 cell membrane [35S]GTPγS binding assay. The following applies: HEK293 cell membranes expressing human GLP-1R, [35S]GTPγS binding; read-out: hGLP1R GTPgS Rel EC50 nM (SEM, n). Also noted: expressed in transfected cells; host or cells: HEK293 cells expressing human GLP-1R; membranes. Format: biochemical. As for the experimental part:
The GLP-1 receptor is a G-protein coupled receptor that increases GTP-bound Gas upon ligand induced receptor activation. The potency of peptides to stimulate-GLP-1R induced activation of Gac is determined using preparations of purified membranes from HEK293 cells expressing the human GLP-1R. […] The test peptides are solubilized in DMSO and diluted in reaction buffer containing 5 μg of membrane in 20 mM HEPES pH 7.4, 50 mM NaCl, 5 mM MgCl2, 40 μg/ml saponin, 0.1% BSA, and […] ^35S-labeled GTPTS for 30 minutes at room temperature. Reactions are terminated by addition of 0.2% Nonidet β-40 detergent containing rabbit anti-Gas polyclonal antibody and 0.5 mg of anti-rabbit polyvinyltoluene beads. Mixtures are developed for 30 minutes, centrifuged at 80×g for 10 minutes, and counted for 1 minute/well using a MicroBeta TriLux instrument. Peptide concentration-response curves are fit to a four-parameter logistic model to calculate potency as an EC50.

Assay [7] deals with T4, human GLP-1R. Kind of assay: GLP-1R CHO cell β-arrestin recruitment assay. The class given is cell-based. Also noted: host or cells: CHO-K1 PathHunter cells, assay-ready frozen. Particulars: CHO-K1 cells. An excerpt:
Activated G-protein coupled receptors can interact with the β-arrestin family of signalling proteins. […] CHO-K1 cells expressing Pro-Link-tagged Human GLP-1R and enzyme-acceptor-tagged β-arrestin-2 may be obtained from DiscoveRx and prepared as assay-ready frozen cells. Test peptides are solubilized in DMSO and serial dilutions are perfomed using the Echo acoustic dispenser (LabCyte). Assay media is the PathHunter Cell Assay Buffer (DiscoveRx) containing 0.1% w/v hydrolyzed Casein (Sigma). […] Plates are incubated for 90 minutes in a 37′C/5% C02 incubator and 10 ul of PathHunter detection reagent is added (DiscoveRx) and plates are incubated at room temperature for 60 minutes. Luminescence signal is measured. Peptide concentration-response curves fit to a four-parameter logistic model to calculate potency as an EC50.

Numbered stars: 1 amine (or outer) side, 2 acyl side, 3 side chain; on linkers, the order of the positions; unused ones are H or OH. Square brackets hold non-standard residues; d marks the D form. Side chains are listed from the residue outwards. Peptide text beside a SMILES is read from it. * marks the point of attachment. C18 diacid = O=C(O)CCCCCCCCCCCCCCCCC(=O)*; γGlu = O=C(O)[C@H](CCC(=O)[*:2])N[*:1]; αMeL = CC(C)C[C@](C)(N)C(=O)O; Orn = NCCC[C@H](N)C(=O)O; AEEA = NCCOCCOCC(=O)O; Aib = CC(C)(N)C(=O)O Bounds are passed on as bounds.

T4 sequence (P43220 24-463): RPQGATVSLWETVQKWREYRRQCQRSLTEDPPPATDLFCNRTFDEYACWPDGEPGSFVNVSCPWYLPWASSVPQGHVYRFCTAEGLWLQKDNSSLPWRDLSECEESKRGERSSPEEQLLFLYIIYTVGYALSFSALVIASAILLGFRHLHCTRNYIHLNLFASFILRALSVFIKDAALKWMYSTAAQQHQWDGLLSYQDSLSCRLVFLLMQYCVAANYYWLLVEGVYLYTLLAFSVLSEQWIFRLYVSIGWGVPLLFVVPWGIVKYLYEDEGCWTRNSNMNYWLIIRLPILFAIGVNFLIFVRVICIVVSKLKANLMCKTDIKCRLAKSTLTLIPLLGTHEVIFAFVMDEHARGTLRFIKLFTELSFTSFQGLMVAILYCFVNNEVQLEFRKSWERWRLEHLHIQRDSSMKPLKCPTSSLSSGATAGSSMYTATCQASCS
Chain of human GLP-1 receptor (GLP-1R) (P43220 24-463): as above
T1 sequence (P47871 26-477): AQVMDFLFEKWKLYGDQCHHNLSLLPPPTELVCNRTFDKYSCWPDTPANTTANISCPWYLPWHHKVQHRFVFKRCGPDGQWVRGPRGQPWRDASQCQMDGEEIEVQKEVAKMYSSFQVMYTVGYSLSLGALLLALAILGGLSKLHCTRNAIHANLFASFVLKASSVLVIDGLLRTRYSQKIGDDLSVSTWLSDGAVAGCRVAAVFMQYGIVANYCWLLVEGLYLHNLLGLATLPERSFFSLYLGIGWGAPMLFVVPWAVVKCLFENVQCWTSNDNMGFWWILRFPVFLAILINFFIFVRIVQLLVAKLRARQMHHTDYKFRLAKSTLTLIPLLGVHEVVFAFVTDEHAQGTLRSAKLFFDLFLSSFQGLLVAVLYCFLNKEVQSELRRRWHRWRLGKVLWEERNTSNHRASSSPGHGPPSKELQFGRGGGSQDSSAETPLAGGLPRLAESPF

The Ki is a dissociation constant, usually derived from enzyme kinetics or from competition with a known ligand. In general, EC50 refers to the concentration at which the effect is half-maximal. `CC[C@H](C)[C@H](NC(=O)[C@H](CC(C)C)NC(=O)[C@H](Cc1ccc(O)cc1)NC(=O)[C@H](CCC(=O)O)NC(=O)[C@@H](NC(=O)[C@H](Cc1ccccc1)NC(=O)[C@H](C)NC(=O)C(C)(C)NC(=O)[C@H](CCC(N)=O)NC(=O)[C@H](C)NC(=O)[C@H](CCCCNC(=O)COCCOCCNC(=O)COCCOCCNC(=O)CC[C@H](NC(=O)CCCCCCCCCCCCCCCCC(=O)O)C(=O)O)NC(=O)[C@H](CCCCN)NC(=O)[C@H](CC(=O)O)NC(=O)[C@H](CC(C)C)NC(=O)[C@H](CC(C)C)NC(=O)[C@@H](NC(=O)[C@H](CO)NC(=O)[C@H](Cc1ccc(O)cc1)NC(=O)[C@H](CC(=O)O)NC(=O)[C@H](CO)NC(=O)[C@@H](NC(=O)[C@H](Cc1ccccc1)NC(=O)[C@@H](NC(=O)CNC(=O)[C@H](CCC(=O)O)NC(=O)C(C)(C)NC(=O)[C@@H](N)Cc1ccc(O)cc1)[C@@H](C)O)[C@@H](C)O)[C@@H](C)CC)C(C)C)C(=O)N[C@@H](CCC(=O)O)C(=O)NCC(=O)NCC(=O)N1CCC[C@H]1C(=O)N[C@@H](CO)C(=O)N[C@@H](CO)C(=O)NCC(N)=O` [Example 298] (H-Y[Aib]EGTFTSDYSILLDKK([AEEA-AEEA-γGlu-C18 diacid])AQ[Aib]AFVEYLIEGGPSSG-NH2; N-terminus assumed): the Ki in assay [1] was above 1370 nM; in assay [2], 0.0578 nM; in assay [5], 3.03 nM. Moreover, the EC50 in assay [3] came out at 0.0957 nM; in assay [4] it was 0.043 nM; in assay [6] it was 1.03 nM.
For the molecule `CC[C@H](C)[C@H](NC(=O)[C@H](CC(C)C)NC(=O)[C@H](Cc1ccc(O)cc1)NC(=O)[C@H](CCC(=O)O)NC(=O)[C@@H](NC(=O)[C@H](Cc1ccccc1)NC(=O)[C@H](CCC(=O)O)NC(=O)C(C)(C)NC(=O)[C@H](CCC(N)=O)NC(=O)[C@H](C)NC(=O)[C@H](CCCCNC(=O)COCCOCCNC(=O)COCCOCCNC(=O)CC[C@H](NC(=O)CCCCCCCCCCCCCCCCC(=O)O)C(=O)O)NC(=O)[C@H](CCCCN)NC(=O)[C@H](CC(=O)O)NC(=O)[C@H](CC(C)C)NC(=O)[C@](C)(CC(C)C)NC(=O)[C@@H](NC(=O)[C@H](CO)NC(=O)[C@H](Cc1ccc(O)cc1)NC(=O)[C@H](CC(=O)O)NC(=O)[C@H](CO)NC(=O)[C@@H](NC(=O)[C@H](Cc1ccccc1)NC(=O)[C@@H](NC(=O)CNC(=O)[C@H](CCC(=O)O)NC(=O)C(C)(C)NC(=O)[C@@H](N)Cc1ccc(O)cc1)[C@@H](C)O)[C@@H](C)O)[C@@H](C)CC)[C@@H](C)CC)C(=O)N[C@@H](CCC(=O)O)C(=O)NCC(=O)NCC(=O)N1CCC[C@H]1C(=O)N[C@@H](CO)C(=O)N[C@@H](CO)C(=O)NCC(N)=O` [Example 304] (H-Y[Aib]EGTFTSDYSI[αMeL]LDKK([AEEA-AEEA-γGlu-C18 diacid])AQ[Aib]EFIEYLIEGGPSSG-NH2), the Ki in assay [1] was above 855 nM; in assay [2], 0.0499 nM; in assay [5], 4.44 nM. For the same molecule, the EC50 came to 0.191 nM in assay [3], 0.0296 nM in assay [4] and 0.561 nM in assay [6].
As to `CC[C@H](C)[C@H](NC(=O)[C@H](CC(C)C)NC(=O)[C@H](Cc1ccc(O)cc1)NC(=O)[C@H](CCC(=O)O)NC(=O)[C@@H](NC(=O)[C@H](Cc1ccccc1)NC(=O)[C@H](C)NC(=O)C(C)(C)NC(=O)[C@H](CCC(N)=O)NC(=O)[C@H](C)NC(=O)[C@H](CCCCNC(=O)COCCOCCNC(=O)COCCOCCNC(=O)CC[C@H](NC(=O)CCCCCCCCCCCCCCCCC(=O)O)C(=O)O)NC(=O)[C@H](CCCCN)NC(=O)[C@H](CC(=O)O)NC(=O)[C@H](CC(C)C)NC(=O)[C@](C)(CC(C)C)NC(=O)[C@@H](NC(=O)[C@H](CO)NC(=O)[C@H](Cc1ccc(O)cc1)NC(=O)[C@H](CC(=O)O)NC(=O)[C@H](CO)NC(=O)[C@@H](NC(=O)[C@H](Cc1ccccc1)NC(=O)[C@@H](NC(=O)CNC(=O)[C@H](CCC(=O)O)NC(=O)C(C)(C)NC(=O)[C@@H](N)Cc1ccc(O)cc1)[C@@H](C)O)[C@@H](C)O)[C@@H](C)CC)[C@@H](C)CC)C(=O)N[C@@H](C)C(=O)NCC(=O)NCC(=O)N1CCC[C@H]1C(=O)N[C@@H](CO)C(=O)N[C@@H](CO)C(=O)NCC(N)=O` [Example 305] (H-Y[Aib]EGTFTSDYSI[αMeL]LDKK([AEEA-AEEA-γGlu-C18 diacid])AQ[Aib]AFIEYLIAGGPSSG-NH2), the Ki was determined as 352 nM in assay [1], 0.025 nM in assay [2] and 0.83 nM in assay [5]. Also, the EC50 stood at 0.107 nM in assay [3], 0.0225 nM in assay [4] and 0.389 nM in assay [6].
As for `CC[C@H](C)[C@H](NC(=O)[C@H](CC(C)C)NC(=O)[C@H](Cc1ccc(O)cc1)NC(=O)[C@@H](CCC(=O)O)NC(=O)[C@@H](NC(=O)[C@H](Cc1ccccc1)NC(=O)[C@H](C)NC(=O)C(C)(C)NC(=O)[C@H](CCC(N)=O)NC(=O)[C@H](C)NC(=O)[C@H](CCCCNC(=O)COCCOCCNC(=O)COCCOCCNC(=O)CC[C@H](NC(=O)CCCCCCCCCCCCCCCCC(=O)O)C(=O)O)NC(=O)[C@H](CCCN)NC(=O)[C@H](CC(=O)O)NC(=O)[C@H](CC(C)C)NC(=O)[C@](C)(CC(C)C)NC(=O)[C@@H](NC(=O)[C@H](CO)NC(=O)[C@H](Cc1ccc(O)cc1)NC(=O)[C@H](CC(=O)O)NC(=O)[C@H](CO)NC(=O)[C@@H](NC(=O)[C@H](Cc1ccccc1)NC(=O)[C@@H](NC(=O)CNC(=O)[C@H](CCC(=O)O)NC(=O)C(C)(C)NC(=O)[C@H](N)Cc1ccc(O)cc1)[C@@H](C)O)[C@@H](C)O)[C@@H](C)CC)C(C)C)C(=O)N[C@@H](C)C(=O)NCC(=O)NCC(=O)N1CCC[C@H]1C(=O)N[C@@H](CO)C(=O)N[C@@H](CO)C(=O)NCC(=O)N[C@@H](C)C(=O)N1CCC[C@H]1C(=O)N1CCC[C@H]1C(=O)N1CCC[C@H]1C(=O)N[C@@H](CO)C(N)=O` [Example 364] (H-[dY][Aib]EGTFTSDYSI[αMeL]LD[Orn]K([AEEA-AEEA-γGlu-C18 diacid])AQ[Aib]AFV[dE]YLIAGGPSSGAPPPS-NH2), the Ki in assay [1] was above 1150 nM; in assay [2], 0.672 nM; in assay [5] it was 17.2 nM. Moreover, the EC50 is 1 nM in assay [3]; 0.351 nM in assay [4]; above 12 µM in assay [7] (0.1% w/v hydrolyzed Casein, read-out: hGLP1R B-Arrestin2 Rel EC50); above 12 µM in assay [7] (PathHunter β-arrestin-2 recruitment, 0.1% casein, read-out: hGLP1R B-Arrestin2 Rel EC50 uM (SEM, n)).
